In US7932262B2 (Novartis AG, priority 2006, dated 2011):
Read-outs that look alike come from different tables or passages of the source.

What was measured:
PDK1 kinase = molecular target: T1, PDK1 kinase (Homo sapiens, UniProt O15530); experiment: PDK1 Kinase Alpha Screen Assay; format: biochemical; settings: read-out: PDK1 IC50
T1 sequence (O15530 1-556): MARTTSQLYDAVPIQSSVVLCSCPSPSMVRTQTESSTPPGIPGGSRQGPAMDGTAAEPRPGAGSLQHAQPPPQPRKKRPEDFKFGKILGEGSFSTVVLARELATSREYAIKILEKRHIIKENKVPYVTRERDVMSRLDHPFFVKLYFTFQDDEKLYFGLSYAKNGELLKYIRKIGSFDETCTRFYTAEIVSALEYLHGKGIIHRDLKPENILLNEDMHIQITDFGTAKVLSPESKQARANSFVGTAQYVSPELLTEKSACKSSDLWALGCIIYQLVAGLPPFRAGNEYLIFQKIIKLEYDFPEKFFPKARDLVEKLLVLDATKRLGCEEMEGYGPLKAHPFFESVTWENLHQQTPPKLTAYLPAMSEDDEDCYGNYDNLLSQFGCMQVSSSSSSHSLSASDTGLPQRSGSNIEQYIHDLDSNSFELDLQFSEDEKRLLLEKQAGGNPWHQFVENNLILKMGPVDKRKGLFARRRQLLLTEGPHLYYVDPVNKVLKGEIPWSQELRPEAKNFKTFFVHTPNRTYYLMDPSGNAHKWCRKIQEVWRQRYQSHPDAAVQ
Method in brief: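 Detection used AlphaScreen: streptavidin donor and protein A acceptor beads (25 μg/ml each) bridged by a phospho-(Ser/Thr) PKA substrate antibody binding phosphorylated peptide. Reaction: biotin-PDK1-4 peptide (50 nM), ATP (10 uM), PDK1 in pH 7.5 Tris/MgCl2/DTT buffer, 3-18 hours, EDTA-stopped.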

A2780 cells = experiment: Cell Proliferation Assay (Cell Titer Glo), A2780; format: cell-based; settings: Homo sapiens, read-out: CPEC50 A2780
Method in brief: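 Following a 3-day compound exposure (37° C., 5% CO2) of A2780 or PC3MM cells plated at 1000 per well, viability was measured by Cell Titer Glo luminescence in fresh medium, read 10 min after reagent addition.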

[1] = cell proliferation, A2780 cells
[2] = 72 h, A2780 cells, 3 days incubation
[3] = Cell Proliferation Assay, A2780

## N#Cc1ccc2cnc(Nc3ccc(S(N)(=O)=O)cc3)nc2c1OC1CCNCC1 [Compound 864, 4-(7-cyano-8-(piperidin-4-yloxy)quinazolin-2-ylamino)benzenesulfonamide]
PDK1 kinase; PDK1 Kinase Alpha Screen Assay
  IC50: < 5 µM
A2780 cells; [1]
  EC50: < 5 µM

## NS(=O)(=O)c1ccc(Nc2ncc3ccc(-c4nccs4)c(OC4CCNCC4)c3n2)cc1 [Compound 862, 4-(8-(piperidin-4-yloxy)-7-(thiazol-2-yl)quinazolin-2-ylamino)benzenesulfonamide]
PDK1 kinase; PDK1 Kinase Alpha Screen Assay
  IC50: < 5 µM
A2780 cells; [1]
  EC50: < 5 µM

## O=S(=O)(NCCN1CCCC1)c1cccc(Nc2ncc3cccc(OC4CCNCC4)c3n2)c1 [Compound 15, 3-[8-(Piperidin-4-yl-oxy)-quinazolin-2-ylamino]-N-(2-pyrrolidin-1-yl-ethyl)-benzenesulfonamide]
PDK1 kinase
  IC50: < 5 µM
A2780 cells; [2]
  EC50: 5 to 10 µM

## COc1ccc(Oc2cccc3cnc(Nc4ccc(S(N)(=O)=O)cc4)nc23)cc1 [Compound 407, 4-(8-(4-methoxyphenoxy)quinazolin-2-ylamino)benzenesulfonamide]
PDK1 kinase; PDK1 Kinase Alpha Screen Assay
  IC50: < 5 µM
A2780 cells; [3]
  EC50: < 5 µM

## NS(=O)(=O)c1ccc(Nc2ncc3ccc(-c4ccnc(N5CCCC5)c4)cc3n2)cc1 [Compound 851, 4-(7-(2-(pyrrolidin-1-yl)pyridin-4-yl)quinazolin-2-ylamino)benzenesulfonamide]
PDK1 kinase; PDK1 Kinase Alpha Screen Assay
  IC50: 5 to 10 µM
A2780 cells; [1]
  EC50: < 5 µM

## NS(=O)(=O)c1ccc(Nc2ncc3ccc(Br)c(O)c3n2)cc1 [Compound 421, 4-(7-bromo-8-hydroxyquinazolin-2-ylamino)benzenesulfonamide]
PDK1 kinase; PDK1 Kinase Alpha Screen Assay
  IC50: 5 to 10 µM
A2780 cells; [3]
  EC50: < 5 µM

## NS(=O)(=O)c1ccc(Nc2ncc3cccc(Nc4cccnc4)c3n2)cc1 [Compound 895, 4-(8-(pyridin-3-ylamino)quinazolin-2-ylamino)benzenesulfonamide]
PDK1 kinase; PDK1 Kinase Alpha Screen Assay
  IC50: < 5 µM
A2780 cells; [1]
  EC50: 5 to 10 µM

## NS(=O)(=O)c1ccc(Nc2ncc3cccc(-c4ccnc(N5CCOCC5)c4)c3n2)cc1 [Compound 105, 4-[8-(2-Morpholin-4-yl-pyridin-4-yl)-quinazolin-2-ylamino]-benzenesulfonamide]
PDK1 kinase
  IC50: < 5 µM
A2780 cells; [2]
  EC50: 5 to 10 µM

## CC(C)Cn1cc(-c2ccc3cnc(Nc4ccc(S(N)(=O)=O)cc4)nc3c2OC2CCNCC2)cn1 [Compound 876, 4-(7-(1-isobutyl-1H-pyrazol-4-yl)-8-(piperidin-4-yloxy)quinazolin-2-ylamino)benzenesulfonamide]
PDK1 kinase; PDK1 Kinase Alpha Screen Assay
  IC50: < 5 µM
A2780 cells; [1]
  EC50: < 5 µM

## NS(=O)(=O)c1ccc(Nc2ncc3cccc(-c4ccc5c(c4)CCNC5=O)c3n2)cc1 [Compound 887, 4-(8-(1-oxo-1,2,3,4-tetrahydroisoquinolin-6-yl)quinazolin-2-ylamino)benzenesulfonamide]
PDK1 kinase; PDK1 Kinase Alpha Screen Assay
  IC50: < 5 µM
A2780 cells; [1]
  EC50: 5 to 10 µM

## NS(=O)(=O)c1ccc(Nc2ncc3cccc(C(=O)N[C@H]4CN5CCC4CC5)c3n2)cc1 [Compound 144, 2-(4-Sulfamoyl-phenylamino)-quinazoline-8-carboxylic acid (R)-3-quinuclidinylamide]
PDK1 kinase
  IC50: 5 to 10 µM
A2780 cells; [2]
  EC50: 5 to 10 µM

## NS(=O)(=O)c1ccc(Nc2ncc3ccc(-c4ccncc4)c(OC4CCNCC4)c3n2)cc1 [Compound 855, 4-(8-(piperidin-4-yloxy)-7-(pyridin-4-yl)quinazolin-2-ylamino)benzenesulfonamide]
PDK1 kinase; PDK1 Kinase Alpha Screen Assay
  IC50: < 5 µM
A2780 cells; [1]
  EC50: 5 to 10 µM

## NS(=O)(=O)c1ccc(Nc2ncc3ccc(-c4cn[nH]c4)cc3n2)cc1 [Compound 132, 4-[7-(1H-Pyrazol-4-yl)-quinazolin-2-ylamino]-benzenesulfonamide]
PDK1 kinase
  IC50: < 5 µM
A2780 cells; [2]
  EC50: < 5 µM

## NS(=O)(=O)c1ccc(Nc2ncc3ccc(-c4ccc(C(=O)N5CCOCC5)cc4)cc3n2)cc1 [Compound 139, 4-{7-[4-(Morpholine-4-carbonyl)-phenyl]-quinazolin-2-ylamino}-benzenesulfonamide]
PDK1 kinase
  IC50: < 5 µM
A2780 cells; [2]
  EC50: 5 to 10 µM

## NC(=O)c1ccc(Nc2ncc3cccc(OC4CCNCC4)c3n2)cc1 [Compound 30, 4-[8-(Piperidin-4-yloxy)-quinazolin-2-ylamino]-benzamide]
PDK1 kinase
  IC50: < 5 µM
A2780 cells; [2]
  EC50: < 5 µM

## CN1CCN(c2cc(-c3ccc4cnc(Nc5ccc(S(N)(=O)=O)cc5)nc4c3)ccn2)CC1 [Compound 882, 4-(7-(2-(4-methylpiperazin-1-yl)pyridin-4-yl)quinazolin-2-ylamino)benzenesulfonamide]
PDK1 kinase; PDK1 Kinase Alpha Screen Assay
  IC50: < 5 µM
A2780 cells; [1]
  EC50: < 5 µM

## NS(=O)(=O)c1ccc(Nc2ncc3cccc(-c4ccc(-c5ccn[nH]5)cc4)c3n2)cc1 [Compound 89, 4-{8-[4-(2H-Pyrazol-3-yl)-phenyl]-quinazolin-2-ylamino}-benzenesulfonamide]
PDK1 kinase
  IC50: < 5 µM
A2780 cells; [2]
  EC50: < 5 µM

## CC(=O)NCCNc1cc(-c2cccc3cnc(Nc4ccc(S(N)(=O)=O)cc4)nc23)ccn1 [Compound 101, N-(2-{4-[2-(4-Sulfamoyl-phenylamino)-quinazolin-8-yl]-pyridin-2-ylamino}-ethyl)-acetamide]
PDK1 kinase
  IC50: < 5 µM
A2780 cells; [2]
  EC50: < 5 µM

## CC(C)N1CCN(C(=O)c2ccc3cnc(Nc4ccc(S(N)(=O)=O)cc4)nc3c2)CC1 [Compound 118, 4-[7-(4-Isopropyl-piperazine-1-carbonyl)-quinazolin-2-ylamino]-benzenesulfonamide]
PDK1 kinase
  IC50: 10 to 25 µM
A2780 cells; [2]
  EC50: 5 to 10 µM

## CC(C)Oc1cccc2cnc(Nc3ccc(NC(=O)CN(C)C)cc3)nc12 [Compound 313, 2-(dimethylamino)-N-(4-(8-isopropoxyquinazolin-2-ylamino)phenyl)acetamide]
PDK1 kinase; PDK1 Kinase Alpha Screen Assay
  IC50: 5 to 10 µM
A2780 cells; [3]
  EC50: < 5 µM

## CNC(=O)c1ccc2cnc(Nc3ccc(S(N)(=O)=O)cc3)nc2c1 [Compound 561, N-methyl-2-(4-sulfamoylphenylamino)quinazoline-7-carboxamide]
PDK1 kinase; PDK1 Kinase Alpha Screen Assay
  IC50: < 5 µM
A2780 cells; [3]
  EC50: < 5 µM

## NS(=O)(=O)c1ccc(Nc2ncc3cccc(C(=O)N4CCS(=O)(=O)CC4)c3n2)cc1 [Compound 122, 4-[8-(1,1-Dioxo-1lambda*6*- thiomorpholine-4-carbonyl)-quinazolin-2-ylamino]-benzenesulfonamide]
PDK1 kinase
  IC50: 10 to 25 µM
A2780 cells; [2]
  EC50: 5 to 10 µM

## CC(C)N1CCC(Oc2ccc3cnc(Nc4ccc(S(=O)(=O)N5CCOCC5)cc4)nc3c2)CC1 [Compound 874, 7-(1-isopropylpiperidin-4-yloxy)-N-(4-(morpholinosulfonyl)phenyl)quinazolin-2-amine]
PDK1 kinase; PDK1 Kinase Alpha Screen Assay
  IC50: < 5 µM
A2780 cells; [1]
  EC50: < 5 µM

## NC(=O)c1ccc(COc2cccc3cnc(Nc4ccc(S(N)(=O)=O)cc4)nc23)cc1 [Compound 628, 4-((2-(4-sulfamoylphenylamino)quinazolin-8-yloxy)methyl)benzamide]
PDK1 kinase; PDK1 Kinase Alpha Screen Assay
  IC50: < 5 µM
A2780 cells; [3]
  EC50: 5 to 10 µM

## NS(=O)(=O)c1ccc(Nc2ncc3ccc(C(=O)O)cc3n2)cc1 [Compound 559, 2-(4-sulfamoylphenylamino)quinazoline-7-carboxylic acid]
PDK1 kinase; PDK1 Kinase Alpha Screen Assay
  IC50: < 5 µM
A2780 cells; [3]
  EC50: 5 to 10 µM

## CC(C)NC(=O)c1cccc2cnc(Nc3ccc(S(N)(=O)=O)cc3)nc12 [Compound 624, N-isopropyl-2-(4-sulfamoylphenylamino)quinazoline-8-carboxamide]
PDK1 kinase; PDK1 Kinase Alpha Screen Assay
  IC50: < 5 µM
A2780 cells; [3]
  EC50: < 5 µM

## COCCN1CCN(C(=O)c2ccc3cnc(Nc4ccc(S(N)(=O)=O)cc4)nc3c2)CC1 [Compound 116, 4-{7-[4-(2-Methoxy-ethyl)-piperazine-1-carbonyl]-quinazolin-2-ylamino}-benzenesulfonamide]
PDK1 kinase
  IC50: 10 to 25 µM
A2780 cells; [2]
  EC50: 5 to 10 µM
